Results from patent US11806358B1, “Method of treating trypanosomiasis” (KING FAISAL UNIVERSITY, priority 2023, dated 2023).
Converted amounts (≈) assume the structure as drawn.

Legend:
[1] = tested on: T. congolense (Tc) IL3000; assay: Anti-trypanosomal assay (CellTiter-Glo), TcIL3000; assay type: cell-based; conditions: mean ± SD
Protocol: Six trypanosome species namely T. b. brucei (Tbb) GuTat3.1, T. b. rhodesiense (Tbr) IL1501, T. b. gambiense (Tbg) IL1922, T. evansi (Tev) Tansui, T. equiperdum (Teq) IVM-t1 and T. congolense (Tc) IL3000, were cultivated using HMI-9 medium and used in the study. The trypanocidal activity of hesperidin and neohesperidin dihydrochalcone, shown below, was assessed at 25 μg/ml or […].
(§1) The IC50 of Neohesperidin dihydrochalcone against six trypanosome species was determined using serial dilution in a 96-well plate (Optical bottom plate, ThermoFisher SCIENTIFIC, MA, USA). After three days, […] of CellTiter-Glo Luminescent cell viability reagent (Promega Corporation, WI, USA) was aliquoted into each well and luminosity was measured with a GloMax plate reader (Promega Corporation, WI, USA).

[2] = tested on: T. b. brucei (Tbb) GuTat3.1; assay: Anti-trypanosomal assay (CellTiter-Glo), TbbGUTat3.1; assay type: cell-based; conditions: mean ± SD
Protocol: (§2) Six trypanosome species namely T. b. brucei (Tbb) GuTat3.1, T. b. rhodesiense (Tbr) IL1501, T. b. gambiense (Tbg) IL1922, T. evansi (Tev) Tansui, T. equiperdum (Teq) IVM-t1 and T. congolense (Tc) IL3000, were cultivated using HMI-9 medium and used in the study. […]
as §1

[3] = tested on: T. b. rhodesiense (Tbr) IL1501; assay: Anti-trypanosomal assay (CellTiter-Glo), TbrIL1501; assay type: cell-based; conditions: mean ± SD
Protocol: as §2, §1

[4] = tested on: T. b. gambiense (Tbg) IL1922; assay: Anti-trypanosomal assay (CellTiter-Glo), TbgIL1922; assay type: cell-based; conditions: mean ± SD
Protocol: as §2, §1

[5] = tested on: T. evansi (Tev) Tansui; assay: Anti-trypanosomal assay (CellTiter-Glo), Tev Tansui; assay type: cell-based; conditions: mean ± SD
Protocol: as §2, §1

[6] = tested on: T. equiperdum (Teq) IVM-t1; assay: Anti-trypanosomal assay (CellTiter-Glo), Teq IVM-t1; assay type: cell-based
Protocol: as §2, §1

[7] = tested on: six trypanosome species; assay: Anti-trypanosomal assay, statements over all six species; assay type: cell-based, Trypanosoma; conditions: for antitrypanosomal activity: assayed at 0.25 or 25 μg/ml; for trypanocidal activity (words): at about 25 μg/ml
Protocol: as §2, §1

[8] = tested on: Trypanosoma; conditions: previously tested; cited from earlier work
[9] = tested on: Toxoplasma gondii; conditions: compared to other flavonoids and conventional medicines; cited from earlier work
[10] = Trypanosoma equiperdum, read-out: Inhibition rate

## COc1ccc([C@@H]2CC(=O)c3c(O)cc(O[C@@H]4O[C@H](CO[C@@H]5O[C@@H](C)[C@H](O)[C@@H](O)[C@H]5O)[C@@H](O)[C@H](O)[C@H]4O)cc3O2)cc1O [Hesperidin, hesperidin, reference compound]
[1]; Trypanosoma congolense, TcIL3000, 0.25 μg/ml, read-out: Inhibition rate
  inhibition at 0.25 µg/mL: 0%
[1]; Trypanosoma congolense, TcIL3000, 25 μg/ml, read-out: Inhibition rate
  inhibition at 25 µg/mL: 0%
[2]; Trypanosoma brucei, TbbGUTat3.1, 0.25 μg/ml, read-out: Inhibition rate
  inhibition at 0.25 µg/mL: 0%
[2]; Trypanosoma brucei, TbbGUTat3.1, 25 μg/ml, read-out: Inhibition rate
  inhibition at 25 µg/mL: 1.05 ± 0.99%
[3]; Trypanosoma brucei, RHODESIENSE, TbrIL1501, 0.25 μg/ml, read-out: Inhibition rate
  inhibition at 0.25 µg/mL: 7.17 ± 3.1%
[3]; Trypanosoma brucei, RHODESIENSE, TbrIL1501, 25 μg/ml, read-out: Inhibition rate
  inhibition at 25 µg/mL: 0%
[4]; Trypanosoma brucei, GAMBIENSE, TbgIL1922, 0.25 μg/ml, read-out: Inhibition rate
  inhibition at 0.25 µg/mL: 1.56 ± 2.2%
[4]; Trypanosoma brucei, GAMBIENSE, TbgIL1922, 25 μg/ml, read-out: Inhibition rate
  inhibition at 25 µg/mL: 0%
[5]; 0.25 μg/ml, read-out: Inhibition rate
  inhibition at 0.25 µg/mL: 7.67 ± 5.9%
[5]; 25 μg/ml, read-out: Inhibition rate
  inhibition at 25 µg/mL: 0%
[6]; [10]
  inhibition at 0.25 µg/mL: 0.015 ± 0.022%
  inhibition at 25 µg/mL: 0.97 ± 1.37%
[7]
  antitrypanosomal activity: inadequate antitrypanosomal activity
  trypanocidal activity (words): no activity
[8]
  trypanocidal action: did not previously show any trypanocidal action

## COc1ccc(CCC(=O)c2c(O)cc(O[C@@H]3O[C@H](CO)[C@@H](O)[C@H](O)[C@H]3O[C@@H]3O[C@@H](C)[C@H](O)[C@@H](O)[C@H]3O)cc2O)cc1O [Neohesperidin dihydrochalcone, neohesperidin dihydrochalcone]
[1]; TcIL3000, 0.25 μg/ml
  Inhibition rate: 0%
[1]; TcIL3000, 25 μg/ml
  Inhibition rate: 82.07 ± 6.4%
[1]; TcIL3000, three days
  IC50: 22.53 ± 2.3 µg/mL (≈ 36.8 µM)
[2]; TbbGUTat3.1, 0.25 μg/ml
  Inhibition rate: 2.89 ± 1.69%
[2]; TbbGUTat3.1, 25 μg/ml
  Inhibition rate: 99.65 ± 0.2%
[2]; TbbGUTat3.1, 25 μg/ml, listed as neohesperidin dihydrochalcone
  Inhibition rate: more than 99%
[2]; TbbGUTat3.1, three days
  IC50: 11.97 ± 0.026 µg/mL (≈ 19.5 µM)
[3]; TbrIL1501, 0.25 μg/ml
  Inhibition rate: 3.95 ± 5.59%
[3]; TbrIL1501, 25 μg/ml
  Inhibition rate: 99.63 ± 0.25%
[3]; TbrIL1501, 25 μg/ml, listed as neohesperidin dihydrochalcone
  Inhibition rate: more than 99%
[3]; TbrIL1501, three days
  IC50: 9.47 ± 2.73 µg/mL (≈ 15.5 µM)
[4]; TbgIL1922, 0.25 μg/ml
  Inhibition rate: 1.09 ± 0.64%
[4]; TbgIL1922, 25 μg/ml
  Inhibition rate: 99.63 ± 0.28%
[4]; TbgIL1922, 25 μg/ml, listed as neohesperidin dihydrochalcone
  Inhibition rate: more than 99%
[4]; TbgIL1922, three days
  IC50: 8.88 ± 3.84 µg/mL (≈ 14.5 µM)
[5]; 0.25 μg/ml
  Inhibition rate: 3.59 ± 5.5%
[5]; 25 μg/ml
  Inhibition rate: 99.18 ± 0.22%
[5]; 25 μg/ml, listed as neohesperidin dihydrochalcone
  Inhibition rate: more than 99%
[5]; three days
  IC50: 12.69 ± 0.98 µg/mL (≈ 20.7 µM)
[6]; Teq IVM-t1, 0.25 μg/ml, mean ± SD
  Inhibition rate: 0.59 ± 0.84%
[6]; Teq IVM-t1, 25 μg/ml, mean ± SD
  Inhibition rate: 98.8 ± 0.17%
[6]; Teq IVM-t1, 25 μg/ml, mean ± SD, listed as neohesperidin dihydrochalcone
  Inhibition rate: more than 99%
[6]; Teq IVM-t1, three days, mean ± SD
  IC50: 11.38 ± 3.93 µg/mL (≈ 18.6 µM)
[7]
  antitrypanosomal activity: broad-spectrum and strong inhibition of trypanosomal growth
  trypanocidal activity (words): substantial trypanocidal activity
[7]; listed as neohesperidin dihydrochalcone
  trypanocidal activity (words): suppressed all the test strains
[7]; low concentration of 0.25 μg/ml
  inhibition rate, range over the species: 1.09-3.95%
[7]; six Trypanosoma species
  IC50 range over the six species: 8.88 to 22.53 µg/mL

## COc1ccc([C@@H]2CC(=O)c3c(O)cc(O[C@@H]4O[C@H](CO)[C@@H](O)[C@H](O)[C@H]4O[C@@H]4O[C@@H](C)[C@H](O)[C@@H](O)[C@H]4O)cc3O2)cc1O [neohesperidin]
[9]
  antiprotozoal activity against Toxoplasmosis: not as effective as other standard drugs or flavonoids
